# Measured values from US20160221932A1, “Methods and Uses of Melatonin Ligands” (priority 2013, published 2016).
# “Also recorded” adds a separate entry of the source.
# Key:
# Wistar rats [1] = assay: hot plate test; assay type: in vivo, rat
# Description: Animals: Wistar rats (150-250 g, Charles-River Saint-Constant, Quebec, Canada) were used for the formalin test, hot plate test and L5-L6 spinal nerves ligature model. The animals were housed at constant room temperature and humidity under a 12 h light/dark cycle (lights on at 7 AM). Food and water were available ad libitum. Hot plate test: The hot-plate test was performed by using an electronically controlled hot-plate (Ugo Basile, Italy). The initial temperature was 38° C. A near linear increase in temperature (3° C. per min) was obtained by turning the heating adjustment to maximum. The temperature at which the fast hindpaw lick occurred was recorded as the nociceptive end-point. If no hindpaw lick was observed, the test was terminated at 52° C., and this cut-off value was used in the analysis. The plate was wiped with a wet cloth, and a fan located behind the plate allowed rapid cooling so that testing could be conducted every 7.5 min. Statistical Analysis: Data analysis was done using SigmaPlot 12 (Systat Software, Inc.). Two-way ANOVA for repeated measures was used to analyze data from L5-L6 models using treatments (between) and testing time (within) as factors. One-way ANOVA was used to analyze AUC in the L5-L6 spinal nerves ligation model. One-way ANOVA was used for formalin and hot-plate tests. Post-hoc analyses were performed using Bonferroni t-test comparisons or Student-Newman-Keuls (SNK) test. All data are expressed as mean±Standard Error of the Mean (SEM). P<0.05 was considered significant.
# Wistar rats [2] = assay: formalin test; assay type: in vivo, rat; conditions: 30 min prior to test
# Description: (§1) Animals: Wistar rats (150-250 g, Charles-River Saint-Constant, Quebec, Canada) were used for the formalin test, hot plate test and L5-L6 spinal nerves ligature model. The animals were housed at constant room temperature and humidity under a 12 h light/dark cycle (lights on at 7 AM). Food and water were available ad libitum.
# Formalin Test: Antinociception was assessed using the formalin test (Dubuisson and Dennis, 1977). Rats were placed in open Plexiglas observation chambers for 60 min to allow them to acclimatize to their surroundings; then they were removed for formalin administration. Rats were gently restrained while the dorsal surface of the right hindpaw was injected with […] of 1% formalin (37% formaldehyde solution further diluted in saline solution) with a 30-gauge needle. The animals were returned to the chambers and nociceptive behavior was observed immediately after formalin injection. Mirrors were placed in each chamber to enable unhindered observation. Licking/biting behavior directed to the formalin injected paw was scored in 5 min intervals considering number and duration of the licking. Cumulative behavior for the total duration of the test as well as the first (0-10 min) and second phase (20-50 min) was then analyzed (Sufka et al., 1998).The initial acute phase (0-10 min) was followed by a relatively short quiescent period, which was then followed by a prolonged tonic response (15-60 min). The first phase is considered to be the result of direct stimulation of nociceptors, whereas inflammation process contributes to phase 2 activity (Hunskaar and Hole, 1987). At the end of the experiment the rats were sacrificed in a CO2 chamber.
# (§2) Statistical Analysis: Data analysis was done using SigmaPlot 12 (Systat Software, Inc.). Two-way ANOVA for repeated measures was used to analyze data from L5-L6 models using treatments (between) and testing time (within) as factors. One-way ANOVA was used to analyze AUC in the L5-L6 spinal nerves ligation model. One-way ANOVA was used for formalin and hot-plate tests. Post-hoc analyses were performed using Bonferroni t-test comparisons or Student-Newman-Keuls (SNK) test. All data are expressed as mean±Standard Error of the Mean (SEM). P<0.05 was considered significant.
# [3] = tested on: rats with L5-L6 spinal nerves ligation; assay: L5-L6 spinal nerves ligature model, von Frey paw withdrawal threshold; assay type: in vivo, rat; conditions: for AUC of the antiallodynic effect across 8 h: mean±SEM, VEH 36.24±1.8 g
# Description: as §1
# L5-L6 Spinal Nerves Ligature: Nerve injury results in abnormal pain perception, known as neuropathic pain, which is associated with hyperalgesia (high pain sensibility) and allodynia (pain perception induced by innocuous stimuli) (Campbell and Meyer, 2006). The rat model for neuropathic pain develop by Kim and Chung (Kim and Chung, 1992) was used in which the L5 and L6 spinal nerves were ligated and two weeks later allodynia was measured by paw stimulation with von Frey filaments. Briefly, animals were anesthetized with a mixture of ketamine/xylazine/acepromazine (i.p.). Following surgical preparation and exposure of the dorsal vertebral column, the left L5 and L6 spinal nerves were exposed and tightly ligated with 3.0 chromic catgut suture distal to the dorsal root ganglion. For sham-operated rats, the nerves were exposed but not ligated. The incisions were closed using 3.0 vicryl sutures, and the animals were allowed to recover for 13 days.
# On day 14 after surgery, rats were singularly placed in a test chamber (clear plastic, wire mesh-bottomed cage) and allowed to acclimatize for 30-40 min. Von Frey filaments (Stoelting, Wood Dale, Ill., USA) were used to measure the 50% paw withdrawal threshold using the up and down method by (Chaplan et al., 1994). […] Lifting of the paw indicated a positive response and prompted the use of the next weaker filament, whereas absence of paw withdrawal after 5 s indicated a negative response and prompted the next filament of increasing weight. This paradigm continued for four more measurements after the initial change of the behavioral response, or until five consecutive negative (assigned a score of 15 g), or four consecutive positive (assigned a score of 0.25 g) responses. The resulting score were used to calculate the 50% response threshold by using the formula proposed by Dixon et al., 1980.
# Allodynia was considered to be present when paw withdrawal thresholds were less than 4 g. (Chaplan et al., 1994). All nerve-ligated rats were verified to be allodynic, responding to a stimulus of less than 4 g. Rats without allodynia were excluded. Following the determination of the basal response, tactile allodynia was assessed at 0.5, 1, 2, 3, 4, 5, 6, 7 and 8 h post-administration for each treatment below described.
# […] […] Another group of rats received only the vehicle (VEH) consisting on a 70% DMSO/saline solution (0.9% NaCl). All treatments were administered in a single subcutaneous injection with a volume of 1 ml. Rats were tested at 0 h (basal withdrawal threshold) and 0.5, 1, 2, 3, 4, 5, 6, 7 and 8 h post-treatment administration.
# as §2
# SNI rats = assay: spared nerve injury (SNI) model, dynamic plantar aesthesiometer; assay type: in vivo, rat; conditions: 150 mg/kg s.c.
# Description: Spared nerve injury (SNI) of the sciatic nerve and measurement of allodynia with the dynamic plantar aesthesiometer. SNI was performed according to the method of Decosterd and Woolf (2000). Rats were anaesthetized with sodium pentobarbital (50 mg/kg i.p.). The sciatic nerve was exposed at mid-thigh level […] to the trifurcation and freed of connective tissue; the three peripheral branches (sural, common peroneal, and tibial nerves) of the sciatic nerve were exposed without stretching nerve structures. Both tibial and common peroneal nerves were ligated and transected together. The sham procedure consisted of the same surgery without ligation and transection of the nerves. Fourteen days after SNI, mechanical allodynia was measured using the dynamic plantar aesthesiometer (Ugo Basile, Varese, Italy). Each rat was placed and allowed to move freely in one of the two compartments of the enclosure positioned on a metal grid surface. A mechanical stimulus was delivered to the plantar surface of the rat's hind paw through the metal grid by a steel filament (Von Frey-type), connected to a movable touch-stimulator unit exerting an increasing force of 3 g per second. The force inducing paw withdrawal was recorded to the nearest 0.1 g. Nociceptive responses for mechanical sensitivity (mechanical withdrawal threshold) were measured in grams before and after vehicle or drug administration by an experimenter blind to the treatments. A single trial at each time point was performed on the ipsilateral hind paw to SNI surgery for each rat. Nociceptive responses for mechanical sensitivity were expressed as mean±SEM (g). Groups of 6-7 rats per treatment were used, with each animal being used for one treatment only.
# as §2
# human MT1 receptor = target: T1, human MT1 receptor (Homo sapiens, UniProt P48039); assay: 2-[125I]iodomelatonin competition binding, human MT1 in CHO cells; conditions: human MT1 stably expressed in CHO cells; calculated from IC50 by Cheng and Prusoff; read-out: MT1 pKi (converted)
# T1 construct: expressed in transfected cells
# human MT2 receptor = target: T2, human MT2 receptor (Homo sapiens, UniProt P49286); assay: 2-[125I]iodomelatonin competition binding, human MT2 in CHO cells; conditions: human MT2 stably expressed in CHO cells; calculated from IC50 by Cheng and Prusoff; read-out: MT2 pKi (converted)
# T2 construct: expressed in transfected cells
# T2 sequence (P49286 1-362): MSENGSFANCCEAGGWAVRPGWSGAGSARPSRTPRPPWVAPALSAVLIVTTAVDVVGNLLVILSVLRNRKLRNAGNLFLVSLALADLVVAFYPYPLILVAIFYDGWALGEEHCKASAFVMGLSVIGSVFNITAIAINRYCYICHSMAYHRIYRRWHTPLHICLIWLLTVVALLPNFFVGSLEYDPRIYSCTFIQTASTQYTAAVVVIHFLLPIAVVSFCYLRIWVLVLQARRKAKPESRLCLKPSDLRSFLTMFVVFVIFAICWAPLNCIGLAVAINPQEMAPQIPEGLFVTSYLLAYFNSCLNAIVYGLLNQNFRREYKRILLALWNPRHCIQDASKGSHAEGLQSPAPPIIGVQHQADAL
# human-cloned MT1 = target: T3, human-cloned MT1 (Homo sapiens, UniProt P48039); assay: impedance assay in CHO cells expressing human-cloned MT1 (functional activity); assay type: cell-based; as to MT1 Activity: key: A = ago0nist; PA = partial agonist; ANT = antagonits
# T3 construct: expressed in transfected cells
# [4] = target: T4, human-cloned MT2 receptors (Homo sapiens, UniProt P49286); assay: cAMP assay in CHO cells expressing human-cloned MT2 (functional activity); assay type: cell-based; as to MT2 Activity: key: A = ago0nist; PA = partial agonist; ANT = antagonits
# T4 construct: expressed in transfected cells
# T4 sequence (P49286 1-362): T2 sequence (P49286 1-362)
# [5] = 3 mg/kg s.c., listed as Ketoprofen
# [6] = 3 mg/kg s.c., listed as ketoprofen
# T3 sequence (P48039 whole entry): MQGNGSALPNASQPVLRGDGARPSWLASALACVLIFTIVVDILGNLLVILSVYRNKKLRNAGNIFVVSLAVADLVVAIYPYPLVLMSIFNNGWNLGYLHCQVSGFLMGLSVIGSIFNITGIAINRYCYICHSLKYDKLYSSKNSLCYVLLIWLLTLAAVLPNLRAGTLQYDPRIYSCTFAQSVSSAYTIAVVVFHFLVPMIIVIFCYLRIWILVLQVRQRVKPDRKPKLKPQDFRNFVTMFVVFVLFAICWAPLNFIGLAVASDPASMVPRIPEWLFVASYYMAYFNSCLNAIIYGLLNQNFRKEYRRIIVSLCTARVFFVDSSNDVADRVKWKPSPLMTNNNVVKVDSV
# T1 sequence (P48039 whole entry): as above
smiles,measurement,setting,value
"COc1ccc2[nH]cc(CCNC(C)=O)c2c1 [MLT, N-acetyl-5-methoxytryptamine, reference compound]",withdrawal temperature vs vehicle,"Wistar rats [1]; 150 mg/kg s.c., 30 min post treatment",significant increase of the withdrawal temperature
same,withdrawal temperature vs vehicle,"Wistar rats [1]; 150 mg/kg s.c., 1 hour post treatment",increase of withdrawal temperature; also recorded: increased the withdrawal temperature
same,withdrawal temperature vs vehicle,"Wistar rats [1]; 150 mg/kg s.c., 4 hours post treatment",increase the withdrawal temperature
same,"licking time vs vehicle, first phase",Wistar rats [2]; 150 mg/kg s.c.,decreased the licking time
same,"licking time vs vehicle, second phase",Wistar rats [2]; 150 mg/kg s.c.,decrease of the licking time; also recorded: decreased the licking time
same,"licking time vs vehicle, total time",Wistar rats [2]; 150 mg/kg s.c.,decrease in the licking time; also recorded: decreased the licking time
same,"licking time vs vehicle, first phase","Wistar rats [2]; 150 mg/kg s.c., listed as Melatonin",decrease in the licking time
same,maximum increase in withdrawal threshold,"[3]; 150 mg/kg s.c., at 2 h post-treatment",335 % from baseline
same,AUC of the antiallodynic effect across 8 h,[3]; 150 mg/kg s.c.,131.75±7.9
same,effect on mechanical allodynia compared with GBP 100 mg/kg,SNI rats,lower magnitude than that produced by GBP
"CC(C(=O)O)c1cccc(C(=O)c2ccccc2)c1 (centres unmarked) [KET, Ketoprofen, reference compound]","licking time vs vehicle, first phase",Wistar rats [2]; 3 mg/kg s.c.,decreased the licking time
same,"licking time vs vehicle, second phase",Wistar rats [2]; 3 mg/kg s.c.,decreased the licking time
same,"licking time vs vehicle, total time",Wistar rats [2]; 3 mg/kg s.c.,decreased the licking time
same,"licking time vs vehicle, first phase",Wistar rats [2]; [5],decrease in the licking time
same,"licking time vs vehicle, second phase",Wistar rats [2]; [5],decrease of the licking time
same,"licking time vs vehicle, total time",Wistar rats [2]; [5],decrease in the licking time
same,"licking time vs vehicle, first phase",Wistar rats [2]; [6],decrease in the licking time
same,"licking time vs vehicle, second phase",Wistar rats [2]; [6],decrease of the licking time
same,"licking time vs vehicle, total time",Wistar rats [2]; [6],decrease in the licking time
"NCC1(CC(=O)O)CCCCC1 [GBP, gabapentin, reference compound]",maximum withdrawal threshold increase,"[3]; 100 mg/kg s.c., at 4 h",420 % from basal
same,AUC of the antiallodynic effect across 8 h,[3]; 100 mg/kg s.c.,249.33 ± 22.1 g
"CCC(=O)NC1Cc2ccccc2C(c2ccccc2)C1 (centres unmarked) [4P-PDOT, reference compound]",effect of pre-treatment with MT2 antagonist on antiallodynic effect of 5p,"[3]; 4P-PDOT 10 mg/kg 10 min before 5p 20 mg/kg, 8 h of testing",blocked the effects of 5p
"CC(=O)Nc1ccc(O)cc1 [ACE, Acetaminophen, reference compound]",withdrawal temperature vs vehicle,"Wistar rats [1]; 200 mg/kg s.c., 1 hour post treatment",increased the withdrawal temperature
same,withdrawal temperature vs vehicle,"Wistar rats [1]; 200 mg/kg s.c., 1 hour post treatment, listed as acetaminophen",increase of withdrawal temperature
same,withdrawal temperature vs vehicle,"Wistar rats [1]; 200 mg/kg s.c., 4 hours post treatment",increased the withdrawal temperature
same,withdrawal temperature vs vehicle,"Wistar rats [1]; 200 mg/kg s.c., 4 hours post treatment, listed as acetaminophen",increase the withdrawal temperature
"CC(=O)NCCN(c1ccccc1)c1cccc(OCCCCc2ccccc2)c1 [5i, N-{2-[(3-pheny/butoxyphenyl)-phenyl-amino]ethyl}acetamide]",Ki,human MT1 receptor,35.5 nM
same,Ki,human MT2 receptor,331 nM
same,activity for the MLT receptor subtype MT1 (in words),human-cloned MT1; CHO cells,antagonist activity
same,MT1 Activity,"human-cloned MT1; intrinsic activity, human MT1 in CHO cells",ANT
same,activity for the MLT receptor subtype MT2 (in words),[4]; CHO cells,antagonist activity
same,MT2 Activity,"[4]; intrinsic activity, human MT2 in CHO cells",ANT
